In US7390462B2, “Ratiometric fluorescent pH sensor for non-invasive monitoring” (The University of Maryland Baltimore County, priority 2002, dated 2008):
Like-named read-outs stand apart in the source and are kept apart here.

How the values were obtained:
[1] = cited from earlier work; for pKa: literature value
[2] = physchem; assay type: physicochemical
Method: Fluorescence measurements were recorded with a Varian Cary Eclipse fluorescence spectrophotometer. A solid sample/cuvette holder designed for front-face measurements was used to measure sensor patches that were fixed to the inside front wall of a PMMA disposable cuvette. Excitation light was fixed at an angle of incidence of 30°. Solutions were measured in regular 90° configuration. Cuvettes containing sensor patches were equilibrated in buffered saline solutions ranging in pH from 5 to 10. Uncorrected excitation and emission spectra were recorded for each sample. For comparison, solutions of DHDS and HPTS were also prepared and tested at the same pH values.
FIG. 3 depicts the calibration curves of excitation intensity ratio versus pH for DHDS solution, HPTS solution and the immobilized HPDS. Sensors comprising HDPS-PEG layers were calibrated in buffered saline solutions that ranged in pH from 5 to 10. In each case, the appropriate buffering species, i.e., phosphate, tris or bicarbonate, was at 10 mM and the desired ionic strength, e.g., 20, 150 or 300 mM, was made up with sodium chloride salt. Cuvettes containing sensor patches were equilibrated in each solution. For comparison 1 μM solutions of DHDS and HPTS also were prepared and tested over the same pH range.
Calibration curves for HPTS and MA-HPDS were fit to the following expression (25) describing intensity ratio (R) of monoprotic indicator dyes as a function of pH: R=([H^+]Rmax+ka,appRmin)/ka,app+[H^+] (1) where ka,app is the apparent dissociation constant of the immobilized dye. A least-squares linear regression was used to determine the parameters Rmin, Rmax and ka,app. The pka,app of the immobilized dye was calculated to be 7.61±0.05 for these conditions. This is in good agreement with the pka,app of HPTS in solution, which was calculated to be 7.72±0.02 under the same conditions.
The modified dye is sensitive over the same range as HPTS. The calibration curve for DHDS was fit to an expression similar to that for monoprotic acids, but for diprotic acids. The second hydroxyl group causes DHD to be sensitive over an extended range with two dissociation constants calculated to be pka1,app=7.03±0.02 and pka1,app=9.05±0.02 under these conditions.

[3] = literature (11); cited from earlier work

O=S(=O)([O-])c1cc(S(=O)(=O)[O-])c2ccc3c(O)cc(O)c4ccc1c2c43.[Na+].[Na+] [DHDS, 6,8-dihydroxy-1,3-pyrenedisulfonic acid disodium salt]
second pKa ([1]; literature value (9)): approximately 8.5
pka1,app (first dissociation constant) [2]: 7.03±0.02
pka1,app (second printed dissociation constant) [2]: 9.05±0.02

O=S(=O)([O-])c1cc(O)c2ccc3c(S(=O)(=O)[O-])cc(S(=O)(=O)[O-])c4ccc1c2c34.[Na+].[Na+].[Na+] [HPTS, 8-hydroxy-1,3,6-pyrene trisulphonic acid trisodium salt]
pKa [1]: approximately 7.3
toxicity [3]: low toxicity
pKa [2]: 7.72 ± 0.02

C=C(C)C(=O)Oc1cc(O)c2ccc3c(S(=O)(=O)O)cc(S(=O)(=O)O)c4ccc1c2c34 [MA-HPDS, 6-methacryloyl-8-hydroxy-1,3-pyrene disulfonic acid]
pKa [2]: 7.61 ± 0.05

O=C1OC2(c3cc(Cl)c(O)cc3Oc3cc(O)c(Cl)cc32)c2ccccc21 [dichlorofluorescein]
pKa [1]: ~4
